Results from patent US7157083B2, “Compositions and methods for treating retroviral infections” (priority 1998, dated 2007).

Test system: clinical isolate ROJO (low passage HIV-1) in human PBMCs
Experiment: Study 1 PBMC assay: reverse transcriptase activity after ROJO infection (Treatments A, B, C)
Type: cell-based
Experimental: Percent virus control (% VC) in the following tables is the mean RT activity (cpm) as a percentage of a virus control. Percent cell control (% CC) is the mean XTT absorbance as a percentage of a cell control.
Peripheral blood monocular cells (PBMCs) are obtained from normal hepatitis and HIV-1 negative donors by ficoll hypaque gradient separation. Briefly, anti-coagulated blood is diluted 1:1 with Dulbecco's phosphate buffered saline without Ca^++ and Mg^++ (PBS) and layered over 14 mL of Lymphocyte separation media in a 50 ml centrifuge tube. Tubes are then centrifuged for 30 minutes at 600× g. Banded PBLs are gently aspirated from the resulting interface and subsequently washed 2× with PBS by low speed centrifugation. The mononuclear cells are counted, viability determined by Trypan Blue dye exclusion and resuspended in RPM1640 medium supplemented with 15% FBS (heat inactivated), 2 mM L-glutamine, 100 U/mL penicillin, 100 μg/mL streptomycin, and 10 μg/mL gentamycin with 2 μg/mL phytohemagluttin (PHA) at 1×10^6 cells/mL. The cells are cultured for 48 to 72 h at 37° C., 5% CO2 Following incubation, cells are collected by centrifugation, washed and resuspended in RPMI 1640 supplemented with 15% FBS (heat inactivated), 2 Mm L-glutamine, 100 U/mL penicillin, 100 μg/mL streptomycin, and 10 μg/mL gentamycin with 20 U/mL recombinant IL-2 (R & D Systems, Minneapolis, Minn.). IL-2 is included in the culture medium to maintain the cell division initiated by the PHA mitogenic stimulation. The cultures are then maintained until use by ½ culture volume change with fresh IL-2 containing medium every 3 days.
Human peripheral blood mononuclear cells from a minimum of 2 donors, that have been blasted with PHA and IL-2, are counted, viability determined by Trypan Blue dye exclusion and mixed in equal ratios. Pooled donors are used to minimize the variability observed between individual donors which results from quantitative and qualitative differences in HIV infection and overall response to the PHA and IL-2 of primary lymphocyte populations. The cells are resuspended at 1×10^6 cells/mL in RPMI 1640 without phenol red supplemented with 15% Fetal Bovine Serum (heat inactivated), 2 mM L-glutamine, 100 U/mL penicillin, 100 μg/mL streptomycin, 10 μg/mL gentamycin and IL-2 (20 U/mL, R&D Systems, Minneapolis, Minn.). Fifty microliters of cells are then distributed to the inner 60 wells of a 96 well round bottom Microtiter culture plate in a standard format developed by the Infectious Disease Research department of Southern Research Institute. Each plate contains cell control wells (cells only), virus control wells (cell plus virus), and experimental wells (drug plus cells plus virus).
Using an in-house computer program, IC50 (50% inhibition of virus replication), TC50 (50% reduction in cell viability) and a therapeutic index (TI, […]) were determined. AZT was used as a relevant positive control compound for the individual assays.
This study compares the ability of hyaluronidase to AZT to lower viral replication as measured by reverse transcriptase levels. RT was measured on days 7, 14, and 21. Three different treatment regimens were used in the comparative study (Treatments A, B and C).
Treatment A. Normal mixed PHA blasted human PBMCs (5×10e4/well) were pretreated with drug every 48 hours for 3 doses. On day 6 of pretreatment, cells were infected with clinical isolate ROJO. 48 hours post infection, treatment with drugs continued for an additional 3 treatments. Samples for assay were collected on D7 (day 7), 14, 21, post infection, frozen and later analyzed for reverse transcriptase.
Treatment B. Normal mixed PHA blasted human PBMCs (as above) were plated in 96 wells and allowed to incubate for 48 hours (cells were set at same time as treatment A from same pool). Drug pretreatment started on day 2 and was repeated on day 4. On day 6, cell were infected as in treatment A, with concurrent addition of drug for a total of 3 treatments. […]

Substance: Hyaluronidase
- RT activity % VC (Treatment A, 0.00165 units/mL, Day 7): 131.1%
- RT activity % VC (Treatment A, 0.00165 units/mL, Day 14): 21.6%
- RT activity % VC (Treatment A, 0.00165 units/mL, Day 21): 24.4%
- RT activity % VC (Treatment A, 0.00515 units/mL, Day 7): 49.5%
- RT activity % VC (Treatment A, 0.00515 units/mL, Day 14): 14.9%
- RT activity % VC (Treatment A, 0.00515 units/mL, Day 21): 5.1%
- RT activity % VC (Treatment A, 0.01611 units/mL, Day 7): 1.1%
- RT activity % VC (Treatment A, 0.01611 units/mL, Day 14): 0.1%
- RT activity % VC (Treatment A, 0.01611 units/mL, Day 21): 0.6%
- RT activity % VC (Treatment A, 0.05033 units/mL, Day 7): 1.0%
- RT activity % VC (Treatment A, 0.05033 units/mL, Day 14): 0.4%
- RT activity % VC (Treatment A, 0.05033 units/mL, Day 21): 0.9%
- RT activity % VC (Treatment A, 0.15729 units/mL, Day 7): 0.7%
- RT activity % VC (Treatment A, 0.15729 units/mL, Day 14): 0.2%
- RT activity % VC (Treatment A, 0.15729 units/mL, Day 21): 0.7%
- RT activity % VC (Treatment A, 0.49152 units/mL, Day 7): 1.0%
- RT activity % VC (Treatment A, 0.49152 units/mL, Day 14): 0.3%
- RT activity % VC (Treatment A, 0.49152 units/mL, Day 21): 0.4%
- RT activity % VC (Treatment A, 1.536 units/mL, Day 7): 1.6%
- RT activity % VC (Treatment A, 1.536 units/mL, Day 14): 0.2%
- RT activity % VC (Treatment A, 1.536 units/mL, Day 21): 1.2%
- RT activity % VC (Treatment A, 4.8 units/mL, Day 7): 1.1%
- RT activity % VC (Treatment A, 4.8 units/mL, Day 14): 0.3%
- RT activity % VC (Treatment A, 4.8 units/mL, Day 21): 1.0%
- RT activity % VC (Treatment A, 15 units/mL, Day 7): 1.1%
- RT activity % VC (Treatment A, 15 units/mL, Day 14): 0.7%
- RT activity % VC (Treatment A, 15 units/mL, Day 21): 1.1%
- RT activity % VC (Treatment B, 0.00165 units/mL, Day 7): 47.1%
- RT activity % VC (Treatment B, 0.00165 units/mL, Day 14): 10.5%
- RT activity % VC (Treatment B, 0.00165 units/mL, Day 21): 5.1%
- RT activity % VC (Treatment B, 0.00515 units/mL, Day 7): 6.0%
- RT activity % VC (Treatment B, 0.00515 units/mL, Day 14): 1.0%
- RT activity % VC (Treatment B, 0.00515 units/mL, Day 21): 0.8%
- RT activity % VC (Treatment B, 0.01611 units/mL, Day 7): 3.6%
- RT activity % VC (Treatment B, 0.01611 units/mL, Day 14): 0.6%
- RT activity % VC (Treatment B, 0.01611 units/mL, Day 21): 0.2%
- RT activity % VC (Treatment B, 0.05033 units/mL, Day 7): 3.0%
- RT activity % VC (Treatment B, 0.05033 units/mL, Day 14): 0.4%
- RT activity % VC (Treatment B, 0.05033 units/mL, Day 21): 0.9%
- RT activity % VC (Treatment B, 0.15729 units/mL, Day 7): 2.8%
- RT activity % VC (Treatment B, 0.15729 units/mL, Day 14): 0.4%
- RT activity % VC (Treatment B, 0.15729 units/mL, Day 21): 0.5%
- RT activity % VC (Treatment B, 0.49152 units/mL, Day 7): 4.9%
- RT activity % VC (Treatment B, 0.49152 units/mL, Day 14): 0.4%
- RT activity % VC (Treatment B, 0.49152 units/mL, Day 21): 0.3%
- RT activity % VC (Treatment B, 1.536 units/mL, Day 7): 4.1%
- RT activity % VC (Treatment B, 1.536 units/mL, Day 14): 0.2%
- RT activity % VC (Treatment B, 1.536 units/mL, Day 21): 0.4%
- RT activity % VC (Treatment B, 4.8 units/mL, Day 7): 1.9%
- RT activity % VC (Treatment B, 4.8 units/mL, Day 14): 0.5%
- RT activity % VC (Treatment B, 4.8 units/mL, Day 21): 1.2%
- RT activity % VC (Treatment B, 15 units/mL, Day 7): 3.4%
- RT activity % VC (Treatment B, 15 units/mL, Day 14): 0.5%
- RT activity % VC (Treatment B, 15 units/mL, Day 21): 0.7%
- RT activity % VC (Treatment C, 0.00165 units/mL, Day 7): 104.0%
- RT activity % VC (Treatment C, 0.00165 units/mL, Day 14): 42.4%
- RT activity % VC (Treatment C, 0.00165 units/mL, Day 21): 23.5%
- RT activity % VC (Treatment C, 0.00515 units/mL, Day 7): 100.4%
- RT activity % VC (Treatment C, 0.00515 units/mL, Day 14): 26.0%
- RT activity % VC (Treatment C, 0.00515 units/mL, Day 21): 13.2%
- RT activity % VC (Treatment C, 0.01611 units/mL, Day 7): 3.9%
- RT activity % VC (Treatment C, 0.01611 units/mL, Day 14): 1.8%
- RT activity % VC (Treatment C, 0.01611 units/mL, Day 21): 1.0%
- RT activity % VC (Treatment C, 0.05033 units/mL, Day 7): 3.4%
- RT activity % VC (Treatment C, 0.05033 units/mL, Day 14): 0.4%
- RT activity % VC (Treatment C, 0.05033 units/mL, Day 21): 0.6%
- RT activity % VC (Treatment C, 0.15729 units/mL, Day 7): 3.0%
- RT activity % VC (Treatment C, 0.15729 units/mL, Day 14): 0.2%
- RT activity % VC (Treatment C, 0.15729 units/mL, Day 21): 0.8%
- RT activity % VC (Treatment C, 0.49152 units/mL, Day 7): 4.1%
- RT activity % VC (Treatment C, 0.49152 units/mL, Day 14): 0.2%
- RT activity % VC (Treatment C, 0.49152 units/mL, Day 21): 0.4%
- RT activity % VC (Treatment C, 1.536 units/mL, Day 7): 2.7%
- RT activity % VC (Treatment C, 1.536 units/mL, Day 14): 0.4%
- RT activity % VC (Treatment C, 1.536 units/mL, Day 21): 0.6%
- RT activity % VC (Treatment C, 4.8 units/mL, Day 7): 4.6%
- RT activity % VC (Treatment C, 4.8 units/mL, Day 14): 0.4%
- RT activity % VC (Treatment C, 4.8 units/mL, Day 21): 0.7%
- RT activity % VC (Treatment C, 15 units/mL, Day 7): 3.2%
- RT activity % VC (Treatment C, 15 units/mL, Day 14): 0.6%
- RT activity % VC (Treatment C, 15 units/mL, Day 21): 0.7%
- reduction in viral replication as measured by reverse transcriptase, compared to AZT (Treatments A, B and C, days 7, 14, and 21): greater reduction in viral replication
